Results as given in patent US9399646B2 (Genentech, Inc., priority 2010, dated 2016).

Key:
MCF-7 cells = test: Breast cancer cell viability assay (CellTiter-Glo, 5 days); type: cell-based; details: 5 days' compound exposure; for IC50: Homo sapiens, MCF7, 120 h
In short: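 Eleven-point semilog compound series, final 0.3-0.000003 μM, added to overnight-adhered MCF-7 cells (320/well; RPMI, 10% FBS, 20 mM HEPES) for 5 days. Viability read by CellTiter-Glo luminescence, background from medium without cells subtracted, expressed relative to untreated cells.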

ER-α in MCF-7 cells = biological target: T1, ER-α in MCF-7 cells (Homo sapiens, UniProt P03372); test: Breast cancer cell ER-α in cell western assay (SP1); type: cell-based; parameters: endogenous in cells; host or cells: MCF-7; details: 4 or 24 hr post compound addition; for Emax: MCF7, SP1 antibody, read-out: ER-α In Cell Western Assay (SP1) Max Response; for DC50: SP1 antibody, read-out: ER-α In Cell Western Assay (SP1) IC50
T1 sequence (P03372 1-595): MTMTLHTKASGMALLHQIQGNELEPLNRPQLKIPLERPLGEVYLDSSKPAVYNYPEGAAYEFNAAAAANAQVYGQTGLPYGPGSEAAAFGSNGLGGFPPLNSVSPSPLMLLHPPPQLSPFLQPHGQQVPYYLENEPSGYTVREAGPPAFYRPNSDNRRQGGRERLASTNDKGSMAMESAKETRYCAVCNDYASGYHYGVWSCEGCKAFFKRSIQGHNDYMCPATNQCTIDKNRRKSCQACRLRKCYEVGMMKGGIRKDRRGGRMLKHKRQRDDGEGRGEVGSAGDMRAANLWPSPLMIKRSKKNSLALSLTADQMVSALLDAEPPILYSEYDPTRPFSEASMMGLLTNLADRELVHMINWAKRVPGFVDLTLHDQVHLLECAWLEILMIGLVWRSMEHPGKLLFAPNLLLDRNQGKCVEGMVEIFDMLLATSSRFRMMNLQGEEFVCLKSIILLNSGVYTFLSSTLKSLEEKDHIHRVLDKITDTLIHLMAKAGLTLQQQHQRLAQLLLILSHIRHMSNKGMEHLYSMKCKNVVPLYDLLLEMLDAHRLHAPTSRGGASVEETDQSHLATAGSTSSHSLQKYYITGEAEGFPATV
In short: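 Read-out is infrared in-cell western: SP1-detected ER intensity at 800 nm divided by DRAQ5 DNA intensity at 700 nm, relative to untreated wells ×100.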

Structure (SMILES)	IC50 (MCF-7 cells) [nM]	Emax (ER-α in MCF-7 cells) [%]	DC50 (ER-α in MCF-7 cells) [nM]	MCF7 Viability Assay Max Response (MCF-7 cells)
CC/C(=C(/c1ccc(/C=C/C(=O)O)cc1)c1ccn2cnnc2c1)c1ccccc1 [Compound 134, (E)-3-(4-((E)-1-([1,2,4]Triazolo[4,3-a]pyridin-7-yl)-2-phenylbut-1-en-1-yl)phenyl)acrylic acid]	> 100	< 40	> 100	+ (+ = a single % value < 40%)
CC/C(=C(/c1ccc(/C=C/C(=O)O)cc1)c1ccn2ncnc2c1)c1ccccc1 [Compound 136, (E)-3-(4-((E)-1-([1,2,4]Triazolo[1,5-a]pyridin-7-yl)-2-phenylbut-1-en-1-yl)phenyl)acrylic acid]	> 100	≥ 40	> 100	+ (+ = a single % value < 40%)
CC/C(=C(/c1ccc(/C=C/C(=O)O)cc1)c1ccc2nonc2c1)c1ccccc1 [Compound 137, (E)-3-(4-((E)-1-(Benzo[c][1,2,5]oxadiazol-5-yl)-2-phenylbut-1-en-1-yl)phenyl)acrylic acid]	> 100	≥ 40	> 100	+ (+ = a single % value < 40%)
CC/C(=C(/c1ccc(/C=C/C(=O)O)cc1)c1ccn2nncc2c1)c1ccccc1 [Compound 138, (E)-3-(4-((E)-1-([1,2,3]Triazolo[1,5-a]pyridin-5-yl)-2-phenylbut-1-en-1-yl)phenyl)acrylic acid]	> 100	≥ 40	> 100	+ (+ = a single % value < 40%)
CC/C(=C(/c1ccc(/C=C/C(=O)O)cc1)c1ccc2c(cnn2-c2ccccc2)c1)c1ccccc1 [Compound 143, (E)-3-(4-((E)-2-Phenyl-1-(1-phenyl-1H-indazol-5-yl)but-1-en-1-yl)phenyl)acrylic acid]	> 100	≥ 40	> 100	++ (++ = a single % value ≧ 40%)
CC/C(=C(/c1ccc(/C=C/C(=O)O)cc1)c1ccc2nsnc2c1)c1ccccc1 [Compound 144, (E)-3-(4-((E)-1-(Benzo[c][1,2,5]thiadiazol-5-yl)-2-phenylbut-1-en-1-yl)phenyl)acrylic acid]	> 100	≥ 40	> 100	++ (++ = a single % value ≧ 40%)
CC/C(=C(/c1ccc(/C=C/C(=O)O)cc1)c1ccc2c(cnn2-c2cccnc2)c1)c1ccccc1 [Compound 145, (E)-3-(4-((E)-2-Phenyl-1-(1-(pyridin-3-yl)-1H-indazol-5-yl)but-1-en-1-yl)phenyl)acrylic acid]	> 100	≥ 40	> 100	++ (++ = a single % value ≧ 40%)
CC/C(=C(/c1ccc(/C=C/C(=O)O)cc1)c1ccc2ocnc2c1)c1ccccc1 [Compound 146]	> 100	≥ 40	> 100	++ (++ = a single % value ≧ 40%)
CC/C(=C(/c1ccc(/C=C/C(=O)O)cc1)c1cnn2ccccc12)c1ccccc1 [Compound 148, (E)-3-(4-((E)-2-Phenyl-1-(pyrazolo[1,5-a]pyridin-3-yl)but-1-en-1-yl)phenyl)acrylic acid]	> 100	≥ 40	> 100	++ (++ = a single % value ≧ 40%)
CC/C(=C(/c1ccc(/C=C/C(=O)O)cc1)c1ncc2[nH]ncc2n1)c1ccccc1 [Compound 149, (E)-3-(4-((E)-2-Phenyl-1-(1H-pyrazolo[4,3-d]pyrimidin-5-yl)but-1-en-1-yl)phenyl)acrylic acid]	> 100	≥ 40	> 100	+ (+ = a single % value < 40%)
CC/C(=C(/c1ccc(/C=C/C(=O)O)cc1)c1ccc(O)nc1)c1ccccc1 [Compound 152, (E)-3-(4-((E)-1-(6-Hydroxypyridin-3-yl)-2-phenylbut-1-en-1-yl)phenyl)acrylic acid]	> 100	≥ 40	–	+ (+ = a single % value < 40%)
CC/C(=C(/c1ccc(/C=C/C(=O)O)cc1)c1ccc2sncc2c1)c1ccccc1 [Compound 156, (E)-3-(4-((E)-1-(Benzo[d]isothiazol-5-yl)-2-phenylbut-1-en-1-yl)phenyl)acrylic acid]	> 100	≥ 40	> 100	++ (++ = a single % value ≧ 40%)

Second part, led by results:

IC50 (MCF-7 cells) [nM]	Emax (ER-α in MCF-7 cells) [%]	DC50 (ER-α in MCF-7 cells) [nM]	Structure (SMILES)	MCF7 Viability Assay Max Response (MCF-7 cells)
> 100	≥ 40	≤ 100	CC/C(=C(/c1ccc(/C=C/C(=O)O)cc1)c1ccc2nccn2c1)c1ccccc1 [Compound 126, (E)-3-(4-((E)-1-(Imidazo[1,2-a]pyridin-6-yl)-2-phenylbut-1-en-1-yl)phenyl)acrylic acid]	++ (++ = a single % value ≧ 40%)
> 100	< 40	> 100	CC/C(=C(/c1ccc(/C=C/C(=O)O)cc1)c1ccc2nncn2c1)c1ccccc1 [Compound 127, (E)-3-(4-((E)-1-([1,2,4]Triazolo[4,3-a]pyridin-6-yl)-2-phenylbut-1-en-1-yl)phenyl)acrylic acid]	+ (+ = a single % value < 40%)
> 100	≥ 40	> 100	CC/C(=C(/c1ccc(/C=C/C(=O)O)cc1)c1ccc2c(c1)OCO2)c1ccccc1 [Compound 128, (E)-3-(4-((E)-1-(Benzo[d][1,3]dioxol-5-yl)-2-phenylbut-1-en-1-yl)phenyl)acrylic acid]	++ (++ = a single % value ≧ 40%)
> 100	≥ 40	≤ 100	CC/C(=C(/c1ccc(/C=C/C(=O)O)cc1)c1ccc2nccn2c1)c1ccccc1C [Compound 129, (E)-3-(4-((E)-1-(Imidazo[1,2-a]pyridin-6-yl)-2-(o-tolyl)but-1-en-1-yl)phenyl)acrylic acid]	++ (++ = a single % value ≧ 40%)
> 100	≥ 40	> 100	CC/C(=C(/c1ccc(/C=C/C(=O)O)cc1)c1ccc2ncsc2c1)c1ccccc1 [Compound 130, (E)-3-(4-((E)-1-(Benzo[d]thiazol-6-yl)-2-phenylbut-1-en-1-yl)phenyl)acrylic acid]	++ (++ = a single % value ≧ 40%)
> 100	≥ 40	> 100	CC/C(=C(/c1ccc(/C=C/C(=O)O)cc1)c1ccc2cncn2c1)c1ccccc1 [Compound 133, (E)-3-(4-((E)-1-(Imidazo[1,5-a]pyridin-6-yl)-2-phenylbut-1-en-1-yl)phenyl)acrylic acid]	++ (++ = a single % value ≧ 40%)
≤ 100	≥ 40	> 100	CC/C(=C(/c1ccc(/C=C/C(=O)O)cc1)c1ccn2cncc2c1)c1ccccc1 [Compound 135, (E)-3-(4-((E)-1-(Imidazo[1,5-a]pyridin-7-yl)-2-phenylbut-1-en-1-yl)phenyl)acrylic acid]	+ (+ = a single % value < 40%)
≤ 100	≥ 40	≤ 100	CC/C(=C(/c1ccc(/C=C/C(=O)O)cc1)c1ccc2scnc2c1)c1ccccc1 [Compound 141, (E)-3-(4-((E)-1-(Benzo[d]thiazol-5-yl)-2-phenylbut-1-en-1-yl)phenyl)acrylic acid]	++ (++ = a single % value ≧ 40%)
≤ 100	≥ 40	≤ 100	CC/C(=C(/c1ccc(/C=C/C(=O)O)cc1)c1cc2ccccc2s1)c1ccccc1 [Compound 142, (E)-3-(4-((E)-1-(Benzo[b]thiophen-2-yl)-2-phenylbut-1-en-1-yl)phenyl)acrylic acid]	++ (++ = a single % value ≧ 40%)
≤ 100	≥ 40	≤ 100	CC/C(=C(/c1ccc(/C=C/C(=O)O)cc1)c1ccc2[nH]ncc2c1)c1ccccc1Oc1ccccc1 [Compound 147, (E)-3-(4-((E)-1-(1H-Indazol-5-yl)-2-(2-phenoxyphenyl)but-1-en-1-yl)phenyl)acrylic acid]	++ (++ = a single % value ≧ 40%)
≤ 100	≥ 40	≤ 100	Cc1cscc1/C(=C(\c1ccc(/C=C/C(=O)O)cc1)c1ccc2[nH]ncc2c1)C(C)C [Compound 154, (E)-3-(4-((E)-1-(1H-Indazol-5-yl)-3-methyl-2-(4-methylthiophen-3-yl)but-1-en-1-yl)phenyl)acrylic acid]	++ (++ = a single % value ≧ 40%)
